Results: ChEMBL document CHEMBL5625278 (Bioorg Med Chem Lett, 2024)

Assay: Binding affinity to LAR C1536S mutant (unknown origin) assessed as inhibition constant by Michaelis-Menten analysis
Set-up: species or system Homo sapiens

- Ki: 7 µM
SMILES: CC1(C)Cc2c(O)c(C=O)c3c(c2C1)C(=O)OC(O)C3 (stereo unspecified) [ILLUDALIC ACID]
